Measurements as given in US20170067871A1, “HIGH-THROUGHPUT CELLULAR ANALYSIS USING MICROBUBBLE ARRAYS” (University of Rochester, priority 2015, published 2017).
Entries after “also recorded” stand apart in the source; their conditions may differ.

Assays:
[1] = system: cutaneous squamous cell carcinoma cell colonies (SCC cells); test: Drug resistance screen of squamous carcinoma cell colonies in microbubble well arrays, CalceinAM/PI live/dead staining; assay type: cell-based
Procedure: To enrich for the sphere cells, established colonies were cultured in the presence of a chemotherapeutic agent (e.g. Cisplatin). Traditional chemotherapeutic agents work by killing rapidly dividing cells, one of the main properties of most cancer cells. This means that chemotherapy also harms cells that divide rapidly under normal circumstances. Most chemotherapeutic drugs work by impairing mitosis (cell division), effectively targeting fast-dividing cells and inducing apoptosis. After Day 7 the cell culture media was changed and 10 uM or 10 nM cisplatin and incubated for 2 to 7 days, respectively. After which the chips were transferred into fresh media prior to a live/dead staining with CalceinAM/PI followed by stem cell marker analysis.

[2] = system: multi-cellular tumor spheroids; details: microbubble well array based perfusion system; cited from earlier work

Compound | surviving sphere cells as share of initial cells seeded in the MB well array ([1]; 10 μM Cisplatin for 48 hr, CalceinAM (live) / propidium iodide (dead) staining, colonies from one or two cells per MB well) [%] | drug resistance of spheroid versus spread cell morphology (live/dead staining) ([1]; established colonies, 10 uM or 10 nM cisplatin for 2 to 7 days, respectively, CalceinAM/PI) | resistance of spheroid cells versus adherent cells to treatment [2]
N.N.[Cl][Pt][Cl] [Cisplatin] | ~5 | the spheroid cells have greater resistance in response to chemo drug than the spread cell; also recorded: sphere cells exhibit drug resistance | –
COc1cccc2c1C(=O)c1c(O)c3c(c(O)c1C2=O)C[C@@](O)(C(=O)CO)C[C@@H]3O[C@H]1C[C@H](N)[C@H](O)[C@H](C)O1 [doxorubicin] | – | – | spheroid cells are more resistant to doxorubicin treatment than adherent cells
